Test results taken from US9469650B2, “Melampomagnolide B derivatives” (BOARD OF TRUSTEES OF THE UNIVERSITY OF ARKANSAS, priority 2013, dated 2016).

Experiments:
COLO 205 = test: panel of 60 human tumor cell lines, growth inhibition (Colon Cancer); conditions: COLO 205
HOP-62 = test: panel of 60 human tumor cell lines, growth inhibition (Non-Small Cell Lung Cancer); conditions: HOP-62
M14 = test: panel of 60 human tumor cell lines, growth inhibition (Melanoma); conditions: M14
U251 = test: panel of 60 human tumor cell lines, growth inhibition (CNS Cancer); conditions: U251
SF-268 = test: as above; conditions: SF-268
OVCAR-5 = test: panel of 60 human tumor cell lines, growth inhibition (Ovarian Cancer); conditions: OVCAR-5
NCI-H522 = test: panel of 60 human tumor cell lines, growth inhibition (Non-Small Cell Lung Cancer); conditions: NCI-H522
K-562 = test: panel of 60 human tumor cell lines, growth inhibition (Leukemia); conditions: K-562
SW-620 = test: panel of 60 human tumor cell lines, growth inhibition (Colon Cancer); conditions: SW-620
CAKI-1 = test: panel of 60 human tumor cell lines, growth inhibition (Renal Cancer); conditions: CAKI-1
PC-3 = test: panel of 60 human tumor cell lines, growth inhibition (Prostate Cancer); conditions: PC-3
DU-145 = test: as above; conditions: DU-145
LOX IMVI = test: panel of 60 human tumor cell lines, growth inhibition (Melanoma)
SF-295 = test: panel of 60 human tumor cell lines, growth inhibition (CNS Cancer); conditions: SF-295
NCI/ADR-RES = test: panel of 60 human tumor cell lines, growth inhibition (Ovarian Cancer)
HS 578T = test: panel of 60 human tumor cell lines, growth inhibition (Breast Cancer); conditions: HS 578T
NCI-H226 = test: panel of 60 human tumor cell lines, growth inhibition (Non-Small Cell Lung Cancer); conditions: NCI-H226
A498 = test: panel of 60 human tumor cell lines, growth inhibition (Renal Cancer); conditions: A498
786-0 = test: as above; conditions: 786-0

For `C=C1C(=O)O[C@H]2[C@H]1CC/C(COC(=O)CCC(=O)N1CCC(C)CC1)=C\CC[C@@]1(C)O[C@@H]21` [JVM 2-70], the “Percent Growth” value (COLO 205; Log10 Concentration −4.0) was −88%, the “Percent Growth” value (COLO 205; Log10 Concentration −5.0) was −11% and the “Percent Growth” value (COLO 205; Log10 Concentration −6.0) was 104%. For the same compound, the “Percent Growth” value (COLO 205; Log10 Concentration −7.0) was 107%, the “Percent Growth” value (COLO 205; Log10 Concentration −8.0) was 94% and the GI50 (COLO 205; NCI five dose) was 2940 nM. The TGI (COLO 205; NCI five dose) was 8.03E−6, the “Percent Growth” value (HOP-62; Log10 Concentration −4.0) was −68% and the “Percent Growth” value (HOP-62; Log10 Concentration −5.0) was 78%. For the same compound, the “Percent Growth” value (HOP-62; Log10 Concentration −6.0) was 91%, the “Percent Growth” value (HOP-62; Log10 Concentration −7.0) was 92% and the “Percent Growth” value (HOP-62; Log10 Concentration −8.0) was 86%. The GI50 (HOP-62; NCI five dose) was 15.5 µM, the TGI (HOP-62; NCI five dose) was 3.41E−5 and the “Percent Growth” value (M14; Log10 Concentration −4.0) was −81%. The “Percent Growth” value (M14; Log10 Concentration −5.0) was 21%, the “Percent Growth” value (M14; Log10 Concentration −6.0) was 84% and the “Percent Growth” value (M14; Log10 Concentration −7.0) was 94%. For the same compound, the “Percent Growth” value (M14; Log10 Concentration −8.0) was 91%, the GI50 (M14; NCI five dose) was 3.44 µM and the TGI (M14; NCI five dose) was 1.60E−5. For the same compound, the “Percent Growth” value (U251; Log10 Concentration −4.0) was −90%, the “Percent Growth” value (U251; Log10 Concentration −5.0) was 90% and the “Percent Growth” value (U251; Log10 Concentration −6.0) was 99%. The “Percent Growth” value (U251; Log10 Concentration −7.0) was 95%, the “Percent Growth” value (U251; Log10 Concentration −8.0) was 95% and the GI50 (U251; NCI five dose) was 16.7 µM. For the same compound, the TGI (U251; NCI five dose) was 3.16E−5, the “Percent Growth” value (SF-268; Log10 Concentration −4.0) was −72% and the “Percent Growth” value (SF-268; Log10 Concentration −5.0) was 67%. For the same compound, the “Percent Growth” value (SF-268; Log10 Concentration −6.0) was 93%, the “Percent Growth” value (SF-268; Log10 Concentration −7.0) was 101% and the “Percent Growth” value (SF-268; Log10 Concentration −8.0) was 100%. The GI50 (SF-268; NCI five dose) was 13.2 µM, the TGI (SF-268; NCI five dose) was 3.02E−5 and the “Percent Growth” value (OVCAR-5; Log10 Concentration −4.0) was −89%. The “Percent Growth” value (OVCAR-5; Log10 Concentration −5.0) was 41%, the “Percent Growth” value (OVCAR-5; Log10 Concentration −6.0) was 87% and the “Percent Growth” value (OVCAR-5; Log10 Concentration −7.0) was 87%. The “Percent Growth” value (OVCAR-5; Log10 Concentration −8.0) was 86%, the GI50 (OVCAR-5; NCI five dose) was 6.36 µM and the TGI (OVCAR-5; NCI five dose) was 2.06E−5. The “Percent Growth” value (NCI-H522; Log10 Concentration −4.0) was −71%, the “Percent Growth” value (NCI-H522; Log10 Concentration −5.0) was −87% and the “Percent Growth” value (NCI-H522; Log10 Concentration −6.0) was 80%. The “Percent Growth” value (NCI-H522; Log10 Concentration −7.0) was 96%, the “Percent Growth” value (NCI-H522; Log10 Concentration −8.0) was 93% and the GI50 (NCI-H522; NCI five dose) was 1500 nM. The TGI (NCI-H522; NCI five dose) was 3.00E−6, the “Percent Growth” value (K-562; Log10 Concentration −4.0) was −38% and the “Percent Growth” value (K-562; Log10 Concentration −5.0) was 7%. The “Percent Growth” value (K-562; Log10 Concentration −6.0) was 90%, the “Percent Growth” value (K-562; Log10 Concentration −7.0) was 109% and the “Percent Growth” value (K-562; Log10 Concentration −8.0) was 109%. For the same compound, the GI50 (K-562; NCI five dose) was 3.06 µM, the TGI (K-562; NCI five dose) was 1.45E−5 and the “Percent Growth” value (SW-620; Log10 Concentration −4.0) was −80%. The “Percent Growth” value (SW-620; Log10 Concentration −5.0) was 1%, the “Percent Growth” value (SW-620; Log10 Concentration −6.0) was 79% and the “Percent Growth” value (SW-620; Log10 Concentration −7.0) was 97%. The “Percent Growth” value (SW-620; Log10 Concentration −8.0) was 99%, the GI50 (SW-620; NCI five dose) was 2330 nM and the TGI (SW-620; NCI five dose) was 1.02E−5. The “Percent Growth” value (CAKI-1; Log10 Concentration −4.0) was −93%, the “Percent Growth” value (CAKI-1; Log10 Concentration −5.0) was 4% and the “Percent Growth” value (CAKI-1; Log10 Concentration −6.0) was 88%. The “Percent Growth” value (CAKI-1; Log10 Concentration −7.0) was 95%, the “Percent Growth” value (CAKI-1; Log10 Concentration −8.0) was 90% and the GI50 (CAKI-1; NCI five dose) was 2830 nM. For the same compound, the TGI (CAKI-1; NCI five dose) was 1.11E−5, the “Percent Growth” value (PC-3; Log10 Concentration −4.0) was −72% and the “Percent Growth” value (PC-3; Log10 Concentration −5.0) was 66%. For the same compound, the “Percent Growth” value (PC-3; Log10 Concentration −6.0) was 94%, the “Percent Growth” value (PC-3; Log10 Concentration −7.0) was 93% and the “Percent Growth” value (PC-3; Log10 Concentration −8.0) was 94%. The GI50 (PC-3; NCI five dose) was 13 µM, the TGI (PC-3; NCI five dose) was 3.00E−5 and the “Percent Growth” value (DU-145; Log10 Concentration −4.0) was −89%. For the same compound, the “Percent Growth” value (DU-145; Log10 Concentration −5.0) was 26%, the “Percent Growth” value (DU-145; Log10 Concentration −6.0) was 95% and the “Percent Growth” value (DU-145; Log10 Concentration −7.0) was 106%. The “Percent Growth” value (DU-145; Log10 Concentration −8.0) was 107%, the GI50 (DU-145; NCI five dose) was 4.44 µM and the TGI (DU-145; NCI five dose) was 1.68E−5. The “Percent Growth” value (LOX IMVI; Log10 Concentration −4.0) was −84%, the “Percent Growth” value (LOX IMVI; Log10 Concentration −5.0) was 4% and the “Percent Growth” value (LOX IMVI; Log10 Concentration −6.0) was 91%. For the same compound, the “Percent Growth” value (LOX IMVI; Log10 Concentration −7.0) was 96%, the “Percent Growth” value (LOX IMVI; Log10 Concentration −8.0) was 96% and the GI50 (LOX IMVI; NCI five dose) was 2950 nM. For the same compound, the TGI (LOX IMVI; NCI five dose) was 1.10E−5, the “Percent Growth” value (SF-295; Log10 Concentration −4.0) was −72% and the “Percent Growth” value (SF-295; Log10 Concentration −5.0) was 74%. The “Percent Growth” value (SF-295; Log10 Concentration −6.0) was 93%, the “Percent Growth” value (SF-295; Log10 Concentration −7.0) was 93% and the “Percent Growth” value (SF-295; Log10 Concentration −8.0) was 89%. For the same compound, the GI50 (SF-295; NCI five dose) was 14.7 µM, the TGI (SF-295; NCI five dose) was 3.23E−5 and the “Percent Growth” value (NCI/ADR-RES; Log10 Concentration −4.0) was −52%. For the same compound, the “Percent Growth” value (NCI/ADR-RES; Log10 Concentration −5.0) was 64%, the “Percent Growth” value (NCI/ADR-RES; Log10 Concentration −6.0) was 99% and the “Percent Growth” value (NCI/ADR-RES; Log10 Concentration −7.0) was 104%. The “Percent Growth” value (NCI/ADR-RES; Log10 Concentration −8.0) was 95%, the GI50 (NCI/ADR-RES; NCI five dose) was 13.1 µM and the TGI (NCI/ADR-RES; NCI five dose) was 3.55E−5. The “Percent Growth” value (HS 578T; Log10 Concentration −4.0) was 6%, the “Percent Growth” value (HS 578T; Log10 Concentration −5.0) was 70% and the “Percent Growth” value (HS 578T; Log10 Concentration −6.0) was 86%. The “Percent Growth” value (HS 578T; Log10 Concentration −7.0) was 92%, the “Percent Growth” value (HS 578T; Log10 Concentration −8.0) was 92% and the GI50 (HS 578T; NCI five dose) was 20.4 µM. For the same compound, the TGI (HS 578T; NCI five dose) was over 1.00E−4, the “Percent Growth” value (NCI-H226; Log10 Concentration −4.0) was −59% and the “Percent Growth” value (NCI-H226; Log10 Concentration −5.0) was 19%. The “Percent Growth” value (NCI-H226; Log10 Concentration −6.0) was 87%, the “Percent Growth” value (NCI-H226; Log10 Concentration −7.0) was 93% and the “Percent Growth” value (NCI-H226; Log10 Concentration −8.0) was 92%. For the same compound, the GI50 (NCI-H226; NCI five dose) was 3.51 µM, the TGI (NCI-H226; NCI five dose) was 1.75E−5 and the “Percent Growth” value (A498; Log10 Concentration −4.0) was −92%. The “Percent Growth” value (A498; Log10 Concentration −5.0) was 29%, the “Percent Growth” value (A498; Log10 Concentration −6.0) was 67% and the “Percent Growth” value (A498; Log10 Concentration −7.0) was 54%. For the same compound, the “Percent Growth” value (A498; Log10 Concentration −8.0) was 58%, the GI50 (A498; NCI five dose) was 2770 nM and the TGI (A498; NCI five dose) was 1.73E−5. The “Percent Growth” value (786-0; Log10 Concentration −4.0) was −78%, the “Percent Growth” value (786-0; Log10 Concentration −5.0) was 39% and the “Percent Growth” value (786-0; Log10 Concentration −6.0) was 100%. The “Percent Growth” value (786-0; Log10 Concentration −7.0) was 98%, the “Percent Growth” value (786-0; Log10 Concentration −8.0) was 90% and the GI50 (786-0; NCI five dose) was 6.64 µM. The TGI (786-0; NCI five dose) was 2.17E−5.
